Assay results as given in patent US11944605B2, “Rapamycin analogs and uses thereof” (Janssen Pharmaceutica NV, priority 2018, dated 2024).
Entries after “also recorded” stand apart in the source; their conditions may differ. Read-outs that look alike come from different tables or passages of the source.

Tests used:
[1] = Pharmacokinetic properties in C57Bl/6 mice; format: in vivo; details: mouse, plasma; for half-life: read-out: Terminal T1/2 (converted)
Experimental: Pharmacokinetic Properties
The pharmacokinetic properties of compounds of the present invention were evaluated in C57Bl/6 mice and compared with rapamycin. Animals were fasted overnight prior to administration of I-29 or rapamycin (1 mg/kg IV, 10 mg/kg PO, or 2 mg/kg IP). Animals were bled at time intervals for up to 48 hours following administration of compounds. Whole blood from each mouse was indivisually collected in polypropylene tubes and immediately centrifuged. Alloquates of the separated plasma were promptly prepared for HPCL analysis.

IFN-γ production = IFN-γ production in allogenic mixed lymphocyte reaction; format: cell-based; details: read-out: IFN-γ Inhibition IC50s
Experimental: Assessment of Effect on IFN-γ Production in Allogenic Mixed Lymphocyte Reaction
The effect of rapamycin, everolimus, I-29, and I-117 on IFN-y production was evaluated in an allogenic mixed lymphocyte reaction (E.g., Eleftheriadis, T. et al., Int. J. Mol. Med., 37(5): 1412-20 (2016) https://doi.org/10.3892/ijmm.2016.2547).

mTORC1 over mTORC2 = assay: mTORC1 selectivity over mTORC2 at 24 hrs (Western blot based pS6K1 and pAKT assay); format: cell-based; details: 24 hrs
[2] = tested on: mTORC2 (Akt phosphorylation) in TSC+/+ MEF cells; assay: Western blot, mTORC2 pathway (pAkt) in TSC+/+ MEF cells; format: cell-based, mouse
Experimental: (§1) The methods employed were substantially similar to those described above. Compounds were evaluated in PC3 cells, Jurkat cells, wild-type mouse embryotic fibroblast (MEF) cells, tuberous sclerosis 2 (TSC2) negative (TSC −/−) MEF cells, and tuberous sclerosis 2 (TSC2) positive (TSC +/+) MEF cells. Cells were incubated with compounds of the present invention for various time periods (e.g., 5 minutes, 15 minutes, 30 minutes, 90 minutes, 24 hours, or 48 hours), and evaluated according to known methodologies, such as those herein described.

[3] = tested on: mTORC2 pathway (Akt phosphorylation) in PC3 cells; assay: Western blot, mTORC2 pathway (pAkt) in PC3 cells; format: cell-based; details: 24 hours
Experimental: (§2) Western Blot Based pS6K1 and pAKT Assay at 24 and 48 Hour Timepoints
(§3) 1. Seed six well plate with 500,000 PC3 cells per well and incubate for 20˜24 hour.
(§4) 2. Add compounds into the cell plate. Incubate for 24 to 48 hours.
(§5) 4. Plate is placed on ice and the media is removed via aspiration. The wells are washed with 1 mL of 1× PBS and then fully aspirated.
(§6) 5. 110 μL of 1% Triton Lysis Buffer is added and each well is scraped vigorously.
(§7) 6. Cell homogenates are transferred to 1.5 mL eppendorf tubes on ice and spun down at 4° C. for 10 minutes at 10,000 rpm.
(§8) 9. The membranes were washed 3× with TBS-T with a 5 minute incubation between each wash then incubated with secondary antibody (LiCor IRDye 800 Donkey Anti Rabbit) for at least 30 minutes.
(§9) 10. The membranes were washed 3× with TBS-T with a 5 minute incubation between each wash.
(§10) 11. The gels were then incubated for 5 minutes with PBS at room temperature then imaged using a Li-Cor.
as §1

[4] = tested on: mTORC1 pathway in tuberous sclerosis 2 (TSC2) positive (TSC+/+) MEF cells; assay: Western blot, mTORC1 pathway in TSC+/+ MEF cells; format: cell-based, mouse
Experimental: as §1

[5] = tested on: pS6K1 (p-p70 S6 Kinase (Thr389)) in MCF-7 cells; assay: AlphaLISA Ultra pS6K1 Assay; format: cell-based; details: Homo sapiens, 1.5 h; MCF7 cells, 90 min
Outline: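 AlphaLISA Ultra read-out (acceptor beads 2 h, then donor beads 2 h) on thawed lysates of MCF-7 cells. Cells had 20–24 h after seeding and a 2 h medium change, then 90 min of compound exposure at 0.5% final DMSO, with lysates stored at −80 °C.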

[6] = tested on: mTORC1 pathway in wild-type MEF cells; assay: Western blot, mTORC1 pathway in wild-type MEF cells; format: cell-based, mouse; details: 24 hours
Experimental: as §1

[7] = tested on: 4E-BP1 phosphorylation in TSC+/+ MEF cells; assay: Western blot, 4E-BP1 phosphorylation in TSC+/+ MEF cells; format: cell-based, mouse; details: 24 hours
Experimental: as §1

[8] = tested on: mTORC2 (Akt phosphorylation) in wild-type MEF cells; assay: Western blot, mTORC2 pathway (pAkt) in wild-type MEF cells; format: cell-based, mouse; details: 24 hours
Experimental: as §1

[9] = tested on: mTORC1 pathway (pS6K1 T389) in PC3 cells; assay: Western blot, mTORC1 pathway (pS6K1) in PC3 cells; format: cell-based; details: PC3 cells, 24 hours
Experimental: as §2, §3, §4, §5, §6, §7, §8, §9, §10, §1

In the case of CO[C@@H]1C[C@H](C[C@@H](C)[C@@H]2CC(=O)[C@H](C)/C=C(\C)[C@@H](O)[C@@H](OC)C(=O)[C@H](C)C[C@H](C)/C=C/C=C/C=C(\C)[C@@H](OCCOCCOCCO)C[C@@H]3CC[C@@H](C)[C@@](O)(O3)C(=O)C(=O)N3CCCC[C@H]3C(=O)O2)CC[C@H]1O [I-29], the AUC(0-inf) ([1]; 1 mg/kg IV) is reported as 18400 ng·h/mL, the AUC(0-t) ([1]; 1 mg/kg IV) is reported as 17600 ng·h/mL and the MRT inf ([1]; 1 mg/kg IV) is reported as 15.9 h. The clearance ([1]; 1 mg/kg IV) was 0.9 mL/min/kg, the half-life ([1]; 1 mg/kg IV) was 14.7 h and the Vd ([1]; 1 mg/kg IV, read-out: Vss) was 0.863 L/kg. For the same compound, the AUC(0-inf) ([1]; 2 mg/kg IP) was 16900 ng·h/mL, the AUC(0-t) ([1]; 2 mg/kg IP) was 16600 ng·h/mL and the Cmax ([1]; 2 mg/kg IP) was 2590 ng/mL. The Tmax ([1]; 2 mg/kg IP) was 0.25 h, the half-life ([1]; 2 mg/kg IP) was 12.6 h and the AUC(0-inf) ([1]; 10 mg/kg PO) was 31700 ng·h/mL. The AUC(0-t) ([1]; 10 mg/kg PO) was 31200 ng·h/mL, the Cmax ([1]; 10 mg/kg PO) was 3290 ng/mL and the Tmax ([1]; 10 mg/kg PO) was 0.25 h. The half-life ([1]; 10 mg/kg PO) was 11 h and the IC50 (IFN-γ production) was over 3000 nM.
With CO[C@@H]1C[C@H](C[C@@H](C)[C@@H]2CC(=O)[C@H](C)/C=C(\C)[C@@H](O)[C@@H](OC)C(=O)[C@H](C)C[C@H](C)/C=C/C=C/C=C(\C)C(OCCOCCOCCOCCOCCOCCOCCOCCOCCO)C[C@@H]3CC[C@@H](C)[C@@](O)(O3)C(=O)C(=O)N3CCCC[C@H]3C(=O)O2)CC[C@H]1O (stereo partly drawn) [I-97, (21E,23E,25E,26E,46R,47S,48R,49R,51S,53S,56S,57R,58R,67R)-57, 67-dihydroxy-55-[2-[2-[2-[2-[2-[2-[2-[2-(2-hydroxyethoxy)ethoxy]ethoxy]ethoxy]ethoxy]ethoxy]ethoxy]ethoxy]ethoxy]-56-[(1R)-2-[(1S,3R,4R)-4-hydroxy-3-methoxy-cyclohexyl]-1-methyl-ethyl]-58-methoxy-46, 47,48,49,59,60-hexamethyl-78,79-dioxa-68-azatricyclohexatriaconta-21, 23,25(59),26(60)-tetraene-61,62,63,64,65-pentone] the “mTORC1 selective @ 24 hrs” value (mTORC1 over mTORC2) was “YES”, the “inhibition of mTORC2 (Akt phosphorylation)” value (shortened to “inhibition of mTORC2”) ([2]; 24 hours) was “do not inhibit” and the “inhibition of mTORC2” value [3] was “do not inhibit”. For the same compound, the “inhibition of the mTORC1 pathway” value ([4]; 24 hours) was “modest concentration dependent inhibition” and the IC50 [5] was 1 to 10 nM.
For COCCOCCO[C@H]1C[C@@H]2CC[C@@H](C)[C@@](O)(O2)C(=O)C(=O)N2CCCC[C@H]2C(=O)O[C@H]([C@H](C)C[C@@H]2CC[C@@H](OCCO)[C@H](OC)C2)CC(=O)[C@H](C)/C=C(\C)[C@@H](O)[C@@H](OC)C(=O)[C@H](C)C[C@H](C)/C=C/C=C/C=C/1C [I-105, (22E,24E,26E,27E,35R,36S,37R,38R,40S,42S,44S,45S,46R,47R,56R)-46, 56-dihydroxy-45-[(1R)-2-[(1S,3R, 4R)-4-(2-hydroxyethoxy)-3-methoxy-cyclohexyl]-1-methyl-ethyl]-47-methoxy-44-[2-(2-methoxyethoxy)ethoxy]-35,36,37,38,48,49-hexamethyl-66, 67-dioxa-57-azatricyclohexatriaconta-22,24,26(48),27(49)-tetraene-50, 51,52,53,54-pentone], the “mTORC1 selective @ 24 hrs” value (mTORC1 over mTORC2) was “YES”, the “inhibition of mTORC2” value ([2]; 90 minutes) was “does not inhibit” and the “inhibition of mTORC2” value ([2]; 24 hours) was “do not inhibit”. For the same compound, the “inhibition of the mTORC1 pathway” value [6] was “moderate inhibition; also recorded: strong inhibition”, the “inhibition of the mTORC1 pathway” value ([4]; 90 minutes) was “strong inhibition” and the “inhibition of the mTORC1 pathway” value ([4]; 24 hours) was “strong inhibition”. For the same compound, the “inhibition of 4E-BP1 phosphorylation” value [7] was “no inhibition”, the IC50 [5] was under 0.1 nM and the “inhibition of mTORC2” value [8] was “do not inhibit”.
For CO[C@@H]1C[C@H](C[C@@H](C)[C@@H]2CC(=O)[C@H](C)/C=C(\C)[C@@H](O)[C@@H](OC)C(=O)[C@H](C)C[C@H](C)/C=C/C=C/C=C(\C)[C@@H](OCCOCCOCCOCCO)C[C@@H]3CC[C@@H](C)[C@@](O)(O3)C(=O)C(=O)N3CCCC[C@H]3C(=O)O2)CC[C@H]1OCCO [I-115, (21E,23E,25E,26E,38R,39S,40R,41R,43S,45S,47S,48S,49R,50R,59R)-49, 59-dihydroxy-47-[2-[2-[2-(2-hydroxyethoxy)ethoxy]ethoxy]ethoxy]-48-[(1R)-2-[(1S,3R, 4R)-4-(2-hydroxyethoxy)-3-methoxy-cyclohexyl]-1-methyl-ethyl]-50-methoxy-38,39,40,41,51,52-hexamethyl-70, 71-dioxa-60-azatricyclohexatriaconta-21,23,25(51),26(52)-tetraene-53, 54,55,56,57-pentone], the “mTORC1 selective @ 24 hrs” value (mTORC1 over mTORC2) was “YES”, the “inhibition of the mTORC1 pathway” value [9] was “strong inhibition” and the “inhibition of mTORC2” value ([2]; 24 hours) was “does not inhibit”. For the same compound, the “inhibition of the mTORC1 pathway” value [6] was “moderate concentration dependent inhibition”, the “inhibition of mTORC2” value [3] was “does not inhibit” and the “inhibition of the mTORC1 pathway” value ([4]; 24 hours) was “moderate concentration dependent inhibition”. The IC50 [5] was 0.1 to 1 nM and the “inhibition of mTORC2” value [8] was “does not inhibit”.
